Counter-ions that a name gives are not always drawn.
Legend:
[1] = test system: Fusarium wilt of cucumber; assay: Exterminating test on Fusarium wilt of cucumber (Experimental Example 4); format: in vivo, Fusarium oxysporum f, cucumerinum; conditions: Fusarium, 336 h; 500 ppm, soil drench 100 ml per pot, two weeks; read-out: Percentage of healthy seedlings
Summary of the method: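 Pots of steam-sterilized soil mixed with 20 g infested soil, sown with 18 cucumber seeds (Tokiwazibai), drenched with 100 ml aqueous suspension of 80% wettable powder. Benlate 50% wettable powder run as control. Disease scored two weeks after planting as percentage of healthy seedlings.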

[2] = test system: cucumber (variety; Tokiwazibai); assay: Phytotoxicity on cucumber (Experimental Example 4); format: in vivo; conditions: 500 ppm
Protocol: Exterminating test on Fusarium wilt of cucumber Twenty (20) grams of infected soil was added uniformly into each pot which was filled with steam sterilized field soil, then 18 seeds of cucumber (variety; Tokiwazibai) were sowed in each pot. Eighty percent (80%) wettable powder of the present invention was diluted with water to obtain a suspension, and each pot was drenched with the suspension in an amount of 100 ml. Fifty percent (50%) wettable powder of methyl-1-(butylcarbamoyl) 2-benzimidazol carbamate (hereinafter referred to as Benlate) on the market was used as a control and tested by the same method. After two weeks of planting, degrees attacked by the pathogen was observed and a "percentage of healthy seedlings" was calculated as follows: [formula]

green algae = assay: Degree of propagation on slime test boards (Example 27); format: cell-based; conditions: same method, shaking culture for 2 days
Protocol: (§1) Zero point zero two (0.02) part of active compounds in the form of 10% water soluble concentrate which was prepared by Example 23 was added into 100 parts of Waxman's liquid medium. Peices of Wood iron (hereafter referred to as the slime test boards) were soaked into the Waxman's liquid medium. The bacteria which were gathered from circular water system were inoculated upon the Waxman's liquid medium and incubated at 27°-34° C by shaking culture for 2 days. The degree of propagation of the bacteria on the slime test boards was examined.
(§2) Thegrowth-inhibiting activity of active compounds against the fungi and the green algae was also examined by the same method as mentioned above.
(§3) The degree of propagation of the bacteria, fungi or green algae on the test boards is defined in terms of the following symbols.

[3] = test system: bacteria gathered from circular water system; assay: as above; format: cell-based; conditions: shaking culture for 2 days
Protocol: as §1, §2, §3

fungi = assay: as above; format: cell-based; conditions: same method, shaking culture for 2 days
Protocol: as §1, §2, §3

[4] = test system: botrytis cinerea (gray mold); assay: Exterminating test on gray mold of tomato (Experimental Example 5); format: in vivo; design: scale not given here; conditions: 1,000 ppm, 48 hours after inoculation, kidney bean leaves
Protocol: Exterminating test on gray mold of tomato The seedlings of kidney beans (variety: Orient) of 5-6 leaves stage were employed in this test. Eighty percent (80%) wettable powder of the present invention was diluted with water and sprayed over the seedlings in an amount of 10 ml per pot. The leaves were cut from the plant at 24 hours after spraying, and placed in the petri dishes (12 cm in diameter). Thereafter disks (5 mm in diameter) were cut with a cork borer from potato dextrose agar on which the pathogen (botrytis cinerea) was cultured. The disks were placed on the leaves. The dishes were placed in such a moistural condition as to cause the pathogen to propagate. Thiophanate methyl 70% wettable powder on the market was used as a control and tested by the same method. After forty eight (48) hours after inoculation, diameters of the lesions were observed, and an "Effect Index" was calculated as follows; [formula]

[5] = test system: seedlings of kidney beans (variety: Orient); assay: Phytotoxicity on kidney beans (Experimental Example 5); format: in vivo; conditions: 1,000 ppm
[6] = test system: Bacteria, fungi and slime; assay: Inhibition of bacteria, fungi and slime in use (Example 23); conditions: water soluble concentrate; 10-20 ppm in water, 0.01-0.1% in pastes
Protocol: Before application, the concentrate was diluted 500-1000 times with water and sprayed on the inside of cotes to prevent the growth of bacteria and fungi.
The solution was added to water in circular water systems to inhibit the growth of slime. The concentration of Compound No. 21 in the water was 10-20 ppm.
An amount of 0.01-0.1% of Compound No. 21 as the solution was added to pastes or binding agents to prevent rottenness of them.

Aspergillus niger = assay: Minimum inhibitory amount, dilution methods (Example 24); format: cell-based; conditions: (1) potato-dextrose agar dilution method
Source text: (§4) Bactericidal activity and fungicidal activity of the active compounds of the present invention were examined by potato-dextrose agar dilution method, or [2] glucose bouillon medium dilution method. The results are shown in Table 10 below as the minimum inhibitory concentration (the minimum concentration of active compound found to produce 100% control of the test bacteria and fungi).

Staphylococcus aureus = assay: as above; format: cell-based; conditions: (2) glucose bouillon medium dilution method
Source text: as §4

Cladosporium harbarum = assay: as above; format: cell-based; conditions: (1) potato-dextrose agar dilution method
Source text: as §4

Penicillium Citrinum = assay: as above; format: cell-based; conditions: (1) potato-dextrose agar dilution method
Source text: as §4

Bacillus subtilis = assay: as above; format: cell-based; conditions: (2) glucose bouillon medium dilution method
Source text: as §4

Escherichia coli = assay: as above; format: cell-based; conditions: (2) glucose bouillon medium dilution method
Source text: as §4

summer orange seedlings = assay: Phytotoxicity on summer orange seedlings (Experimental Example 6); format: in vivo; conditions: 1,000 ppm

SMILES	pest or weed control at 500 ppm [1] [%]	Phytotoxicity [2]	Degree of propagation (green algae)	Degree of propagation [3]	Degree of propagation (fungi)	Effect Index [4]	Phytotoxicity [5]	inhibition of bacteria, fungi and slime [6]	Minimum inhibitory amount (Aspergillus niger) [µg/mL]	Minimum inhibitory amount (Staphylococcus aureus) [µg/mL]	Minimum inhibitory amount (Cladosporium harbarum) [µg/mL]	Minimum inhibitory amount (Penicillium Citrinum) [µg/mL]	Minimum inhibitory amount (Bacillus subtilis) [µg/mL]	Minimum inhibitory amount (Escherichia coli) [µg/mL]	Phytotoxicity (summer orange seedlings)
CCCCNC(=O)n1c(NC(=O)OC)nc2ccccc21 [Benlate, methyl-1-(butylcarbamoyl) 2-benzimidazol carbamate, reference compound]	45	Nil													
O=C(NC=C(Cl)Cl)c1cc(Cl)ccc1O [Compound No. 21, sodium salt of N-(2'-2'-dichlorovinyl)-5-chlorosalicylamide]			-	-	-	80	Nil	inhibited for a long time	10	2.5	5	5	2.5	40	Nil

Source: US4055640A, “Compositions and methods for controlling the growth of bacteria, fungi and algae using certain derivatives of N-(2,2-dichlorovinyl)salicylamides” (Nippon Kayaku Co., Ltd., priority 1975, dated 1977)
